According to PubChem BioAssay (NCI):
Several values for one entry are separate records, joined by “and”; a condition that tells them apart may be missing. Equal values may be shown once.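 Results reflect a 48-hour exposure of cells in 96-well plates to compound at five concentrations. The concentration for 50% growth inhibition is given as GI50. TGI marks complete inhibition of growth.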

Columns and labels:
Test in all cases: growth of human tumour cells (NCI), 48 h
[1] = system: 786-0 renal
[2] = system: SW-620 colon
[3] = system: SF-539 CNS
[4] = system: TK-10 renal
[5] = system: SN12C renal
[6] = system: U251 CNS
[7] = system: SK-MEL-28 melanoma
[8] = system: K-562 leukemia
[9] = system: EKVX NSCLC
[10] = system: HS 578T breast

For `CCCCCc1cc(OC(=O)c2c(O)cc(OC)cc2CCCCC)cc(O)c1C(=O)O`, the TGI [1] was 30.3 µM, the TGI [2] was 36 µM and the TGI [3] was 30.5 µM. For the same molecule, the TGI [4] was 36.6 µM, the TGI [5] was 32.8 µM and the TGI [6] was 29.1 µM. The TGI [7] was 32.9 µM, the TGI [8] was greater than 100 µM and the TGI [9] was 39.9 µM.

For `CCC(C)[C@H](NC(=O)N[C@H](C)c1ccccc1)C(=O)OC` (stereo partly drawn), the TGI [1] was greater than 100 µM, the TGI [2] was greater than 100 µM and the TGI [3] was greater than 100 µM. The TGI [4] was greater than 100 µM, the TGI [5] was greater than 100 µM and the TGI [6] was greater than 100 µM. For the same molecule, the TGI [7] was greater than 100 µM, the TGI [8] was greater than 100 µM and the TGI [9] was greater than 100 µM.

`COc1cc(-c2nc3cc(F)ccc3s2)ccc1O` showed a TGI [1] greater than 100 µM, a TGI [2] greater than 100 µM and a TGI [3] greater than 100 µM. For the same molecule, the TGI [4] was greater than 100 µM, the TGI [5] was greater than 100 µM and the TGI [6] was greater than 100 µM. The TGI [7] was greater than 100 µM, the TGI [8] was greater than 100 µM and the TGI [9] was 53.5 µM.

For `CC(C)C[C@H](NC(=O)[C@H](Cc1cccc2ccccc12)NC(=O)N1CCOCC1)B(O)O`, the TGI [1] was 0.199 µM and 1.09 µM, the TGI [2] was 0.00286 µM and 0.0115 µM and the GI50 [3] was 0.000154 µM. It also gave a TGI [3] of 0.00032 µM, a GI50 [4] of 0.00281 µM and a TGI [4] of 0.0226 µM. For the same molecule, the GI50 [5] was 0.0029 µM, the TGI [5] was 0.0115 µM and < 0.0266 µM and the GI50 [6] was 0.00196 µM. The TGI [6] was 0.0245 µM and 0.0429 µM, the GI50 [7] was 0.000205 µM and the TGI [7] was 0.00096 µM and < 0.0329 µM. The GI50 [8] was 0.00347 µM, the GI50 [9] was 0.00928 µM and the TGI [9] was 0.159 µM.

`COc1ccc2[nH]c3c(c2c1)CCN(C)CC3` showed a TGI [1] greater than 100 µM, a TGI [2] greater than 100 µM and a TGI [3] greater than 100 µM. It also gave a TGI [4] greater than 100 µM, a TGI [6] greater than 100 µM and a TGI [7] greater than 100 µM. The TGI [8] was greater than 100 µM and the TGI [9] was greater than 100 µM.

With `O=C(CSc1nc2ccccc2[nH]1)Nc1ccc(-c2nc3ccccc3s2)c(Cl)c1` the GI50 [2] was 4.78 µM, the TGI [2] was greater than 100 µM and the GI50 [3] was 1.7 µM. It also gave a TGI [3] of 3.25 µM, a GI50 [10] of 4.5 µM and a TGI [10] greater than 100 µM. The GI50 [4] was 4.67 µM, the TGI [4] was 76.6 µM and the GI50 [6] was 1.85 µM. It also gave a TGI [6] of 4.33 µM, a GI50 [7] of 2.73 µM and a TGI [7] of 7.59 µM. For the same molecule, the GI50 [9] was 6.82 µM and the TGI [9] was greater than 100 µM.

For `CCCCOC(=O)CNC(=O)OCCCCC#CC#CCCCCOC(=O)NCC(=O)OCCCC`, the TGI [1] was greater than 100 µM, the TGI [2] was greater than 100 µM and the TGI [3] was greater than 100 µM. It also gave a TGI [4] greater than 100 µM, a TGI [5] greater than 100 µM and a TGI [6] greater than 100 µM. It also gave a TGI [8] greater than 100 µM and a TGI [9] greater than 100 µM.

In the case of `O=C(c1ccc(Cl)cc1)c1ccc(OCC(=O)N2CCN(c3ccccc3)CC2)cc1`, the TGI [1] is reported as greater than 100 µM, the TGI [2] is reported as greater than 100 µM and the TGI [3] is reported as greater than 100 µM. The TGI [4] was greater than 100 µM, the TGI [5] was greater than 100 µM and the TGI [6] was greater than 100 µM. For the same molecule, the TGI [7] was greater than 100 µM, the TGI [8] was greater than 100 µM and the TGI [9] was greater than 100 µM.

`CCOC(=O)/C(O)=C1\C(=O)N(C)C(=O)C1c1ccc(OC)c(OC)c1` (stereo not drawn) was tested, and the TGI [2] was greater than 31.6 µM, the TGI [3] was greater than 100 µM and the TGI [5] was greater than 100 µM. The TGI [6] was greater than 100 µM, the TGI [7] was greater than 100 µM and the TGI [8] was greater than 100 µM. The TGI [9] was greater than 100 µM.

Work on `COc1cccc2cc(C)c(C(=O)c3ccccc3)nc12` yielded a TGI [1] greater than 100 µM, a TGI [2] greater than 100 µM and a TGI [3] greater than 100 µM. It also gave a TGI [4] greater than 100 µM, a TGI [5] greater than 100 µM and a TGI [6] greater than 100 µM. The TGI [7] was greater than 100 µM, the TGI [8] was greater than 100 µM and the TGI [9] was greater than 100 µM.

In the case of `N#CC1=C2Sc3ccccc3N2[C@H](c2ccccc2)[C@H]2COC(=O)[C@@H]12`, the TGI [1] is reported as greater than 100 µM, the TGI [2] is reported as greater than 100 µM and the TGI [3] is reported as greater than 100 µM. It also gave a TGI [10] greater than 100 µM, a TGI [4] greater than 100 µM and a TGI [6] greater than 100 µM. The TGI [7] was greater than 100 µM and the TGI [9] was greater than 100 µM.

With `N/N=C(\C(=O)Nc1c(Cl)cc([N+](=O)[O-])cc1Cl)C(c1cnc2ccc([N+](=O)[O-])cc2n1)[N+](=O)[O-]` (stereo not drawn) the TGI [2] was greater than 100 µM, the TGI [3] was greater than 100 µM and the TGI [4] was greater than 100 µM. The TGI [5] was greater than 100 µM, the TGI [6] was greater than 100 µM and the TGI [7] was greater than 100 µM. It also gave a TGI [8] greater than 100 µM and a TGI [9] greater than 100 µM.

For `Cc1ccc2c(=O)cc(-c3csc4ccccc34)[nH]c2n1`, the TGI [1] was 16 µM, the TGI [2] was greater than 100 µM and the TGI [3] was less than 0.0133 µM. The TGI [4] was 9.78 µM, the TGI [5] was 10.9 µM and the TGI [6] was 0.0783 µM. The TGI [7] was greater than 100 µM and the TGI [8] was greater than 39.7 µM.

`CC(=O)C1CC(C)=CCC12C(=O)Nc1ccccc12` (stereo not drawn) was tested, and the TGI [1] was greater than 100 µM, the TGI [2] was greater than 100 µM and the TGI [3] was greater than 100 µM. It also gave a TGI [4] greater than 100 µM, a TGI [5] greater than 100 µM and a TGI [6] greater than 100 µM. For the same molecule, the TGI [7] was greater than 100 µM, the TGI [8] was greater than 100 µM and the TGI [9] was greater than 100 µM.

Molecule `COc1ccc2c3c1OC1CC(O)C=CC31CCN(C)C2` (stereo not drawn) has a TGI [2] greater than 150 µM, a TGI [3] greater than 33.8 µM and a TGI [5] greater than 150 µM. The TGI [6] was greater than 150 µM, the TGI [7] was greater than 150 µM and the TGI [8] was greater than 150 µM. It also gave a TGI [9] greater than 150 µM.

`COc1cc(OC)c2c(O)cc(CC(C)O)cc2c1` (stereo not drawn) was tested, and the TGI [1] was greater than 100 µM, the TGI [2] was greater than 100 µM and the TGI [3] was greater than 100 µM. For the same molecule, the TGI [4] was greater than 100 µM, the TGI [5] was greater than 100 µM and the TGI [6] was greater than 100 µM. It also gave a TGI [7] greater than 100 µM, a TGI [8] greater than 100 µM and a TGI [9] greater than 100 µM.

In the case of `CCc1cccc(C(C)C)c1NC(=O)C(=O)C(Cc1nc2ccccc2[nH]c1=O)C(=O)OC` (stereo not drawn), the TGI [1] is reported as greater than 100 µM, the TGI [3] is reported as greater than 100 µM and the TGI [4] is reported as greater than 100 µM. The TGI [5] was greater than 100 µM, the TGI [6] was greater than 100 µM and the TGI [7] was greater than 100 µM. The TGI [8] was greater than 100 µM and the TGI [9] was greater than 100 µM.

`Cc1ccc2[nH]cc(-c3nc(-c4c[nH]c5ncccc45)cs3)c2c1` showed a GI50 [2] greater than 100 µM, a TGI [2] greater than 100 µM and a GI50 [3] greater than 100 µM. The TGI [3] was greater than 100 µM, the GI50 [10] was greater than 100 µM and the TGI [10] was greater than 100 µM. It also gave a GI50 [4] greater than 100 µM, a TGI [4] greater than 100 µM and a GI50 [5] greater than 100 µM. For the same molecule, the TGI [5] was greater than 100 µM, the GI50 [6] was greater than 100 µM and the TGI [6] was greater than 100 µM. For the same molecule, the GI50 [7] was greater than 100 µM and the TGI [7] was greater than 100 µM.
